Experimental data as given in BindingDB's records for doi:10.1021/acs.jmedchem.8b00931 (Umr 7273 Cnrs, 2018).

Legend:
[1] = Inhibition of Rhinovirus B14 capsid infected in human HeLa Rh cells assessed as reduction in virus-induced cytopathic effect after 3 days by MTS assay
[2] = Inhibition of Rhinovirus A89 capsid infected in human HeLa Rh cells assessed as reduction in virus-induced cytopathic effect after 3 days by MTS assay
[3] = Inhibition of Rhinovirus A28 capsid infected in human HeLa Rh cells assessed as reduction in virus-induced cytopathic effect after 3 days by MTS assay
[4] = Inhibition of Rhinovirus B42 capsid infected in human HeLa Rh cells assessed as reduction in virus-induced cytopathic effect after 3 days by MTS assay
[5] = Inhibition of Rhinovirus B70 capsid infected in human HeLa Rh cells assessed as reduction in virus-induced cytopathic effect after 3 days by MTS assay
[6] = Inhibition of Rhinovirus A08 capsid infected in human HeLa Rh cells assessed as reduction in virus-induced cytopathic effect after 3 days by MTS assay
[7] = Inhibition of Rhinovirus A85 capsid infected in human HeLa Rh cells assessed as reduction in virus-induced cytopathic effect after 3 days by MTS assay
[8] = Inhibition of Rhinovirus A02 capsid infected in human HeLa Rh cells assessed as reduction in virus-induced cytopathic effect after 3 days by MTS assay

Molecule `Cn1cc(-c2ccc(CC(O)c3ccc(-n4cncn4)cc3)c([N+](=O)[O-])c2)cn1` (stereo not given) has an EC50 [1] of 180 nM.

Molecule `O=[N+]([O-])c1cc(-c2ccco2)ccc1CC(O)c1ccc(-c2ccncc2)cc1` (stereo not given) has an EC50 [1] of 1200 nM.

Molecule `Cn1cc(-c2ccc(CC(O)c3ccc(-n4cccn4)cc3)c([N+](=O)[O-])c2)cn1` (stereo not given) has an EC50 [1] of 200 nM.

`Cn1cc(-c2ccc(C[C@H](O)c3ccc(-n4cncn4)cc3)c([N+](=O)[O-])c2)cn1` showed an EC50 [2] greater than 128000 nM, an EC50 [3] greater than 128000 nM and an EC50 [1] of 60 nM. For the same molecule, the EC50 [4] was greater than 128000 nM, the EC50 [5] was 50 nM and the EC50 [6] was greater than 128000 nM. The EC50 [7] was greater than 128000 nM and the EC50 [8] was greater than 128000 nM.

Molecule `Cn1nc(C(F)(F)F)cc1-c1ccc(CC(O)c2ccc(-c3ccncc3)cc2)c([N+](=O)[O-])c1` (stereo not given) has an EC50 [1] of 1000 nM.

In the case of `O=[N+]([O-])c1cc(-c2cncs2)ccc1CC(O)c1ccc(-n2cncn2)cc1` (stereo not given), the EC50 [1] is reported as 400 nM.

With `O=[N+]([O-])c1cc(Cl)ccc1CC(O)c1ccc(-n2cccn2)cc1` (stereo not given) the EC50 [1] was 128 nM.

With `COC(=O)c1ccc(CC(O)c2ccc(-c3ccncc3)cc2)c([N+](=O)[O-])c1` (stereo not given) the EC50 [1] was 6400 nM.

`Cn1nc(C(F)(F)F)cc1-c1ccc(CC(O)c2ccc(-n3cccn3)cc2)c([N+](=O)[O-])c1` (stereo not given) showed an EC50 [1] of 500 nM.

For `O=[N+]([O-])c1cc(F)ccc1CC(O)c1ccc(-n2cccn2)cc1` (stereo not given), the EC50 [1] was 8700 nM.

Work on `Cc1noc(C)c1-c1ccc(CC(O)c2ccc(-n3cncn3)cc2)c([N+](=O)[O-])c1` (stereo not given) yielded an EC50 [1] greater than 247000 nM.

With `Cn1cc(-c2ccc(C[C@@H](O)c3ccc(-n4cccn4)cc3)c([N+](=O)[O-])c2)cn1` the EC50 [2] was 190 nM, the EC50 [3] was greater than 128000 nM and the EC50 [1] was 2500 nM. The EC50 [4] was greater than 128000 nM, the EC50 [5] was greater than 128000 nM and the EC50 [6] was greater than 128000 nM. For the same molecule, the EC50 [7] was greater than 128000 nM and the EC50 [8] was greater than 128000 nM.

`O=[N+]([O-])c1cc(-c2cccs2)ccc1CC(O)c1ccc(-c2ccncc2)cc1` (stereo not given) gave an EC50 [1] of 1300 nM.

Work on `Cn1cc(-c2ccc(C[C@@H](O)c3ccc(-n4cncn4)cc3)c([N+](=O)[O-])c2)cn1` yielded an EC50 [2] of 1500 nM, an EC50 [3] greater than 128000 nM and an EC50 [1] greater than 128000 nM. The EC50 [4] was greater than 128000 nM, the EC50 [5] was greater than 20000 nM and the EC50 [6] was greater than 128000 nM. The EC50 [7] was greater than 128000 nM and the EC50 [8] was greater than 128000 nM.

`O=[N+]([O-])c1cc(Br)ccc1CC(O)c1ccc(-n2cccn2)cc1` (stereo not given) gave an EC50 [1] of 250 nM.

With `O=[N+]([O-])c1cc(Br)ccc1CC(O)c1ccc(-c2ccncc2)cc1` (stereo not given) the EC50 [1] was 590 nM.

`Cn1cc(-c2ccc(C[C@H](O)c3ccc(-n4cccn4)cc3)c([N+](=O)[O-])c2)cn1` gave an EC50 [2] of 2400 nM, an EC50 [3] greater than 128000 nM and an EC50 [1] of 35 nM. It also gave an EC50 [4] greater than 128000 nM, an EC50 [5] of 17 nM and an EC50 [6] greater than 128000 nM. For the same molecule, the EC50 [7] was greater than 128000 nM and the EC50 [8] was greater than 128000 nM.

With `Cc1noc(C)c1-c1ccc(CC(O)c2ccc(-n3cccn3)cc2)c([N+](=O)[O-])c1` (stereo not given) the EC50 [1] was greater than 247000 nM.

In the case of `Cc1cc(CCCOc2c(C)cc(-c3noc(C(F)(F)F)n3)cc2C)on1` [3-(3,5-dimethyl-4-(3-(3-methylisoxazol-5-yl)propoxy)phenyl)-5-(trifluoromethyl)-1,2,4-oxadiazole], the EC50 [2] is reported as 4 nM, the EC50 [3] is reported as 15 nM and the EC50 [1] is reported as 30 nM. For the same molecule, the EC50 [4] was greater than 128000 nM, the EC50 [5] was 167 nM and the EC50 [6] was 490 nM. The EC50 [7] was 11 nM and the EC50 [8] was 15 nM.

Work on `O=[N+]([O-])c1cc(Br)ccc1CC(O)c1ccc(-n2cncn2)cc1` (stereo not given) yielded an EC50 [1] of 250 nM.
